Source: BindingDB's records for patent US20250333410 (Xizang Haisco Pharmaceutical, 2025)

Each compound was assayed against Potassium voltage-gated channel subfamily H member 2 (Homo sapiens, UniProt Q12809) (assay: Test for hERG Potassium Ion Channel).
From the text: Experimental method: in CHO (Chinese Hamster Ovary) cells stably expressing hERG potassium channel, the whole cell patch-clamp technique was used to record hERG potassium channel current at room temperature. The glass microelectrode was made of a glass electrode blank (BF150-86-10, Sutter) by a puller. The tip resistance after filling the liquid in the electrode was about 2-5 MΩ. The glass microelectrode can be connected to the patch-clamp amplifier by inserting the glass microelectrode into an amplifier probe. The clamping voltage and data recording were controlled and recorded by the pClamp 10 software through a computer. The sampling frequency was 10 kHz, and the filtering frequency was 2 kHz. After the whole cell records were obtained, the cells were clamped at −80 mV, and the step voltage that induced the hERG potassium current (IhERG) was depolarized from −80 mV to +20 mV for 2 s, then repolarized to −50 mV, and returned to −80 mV after 1 s. This voltage stimulation was given every 10 s, and the administration process was started after the hERG potassium current was confirmed to be stable (at least 1 minute). The compound was administered for at least 1 minute at each test concentration, and at least 2 cells (n≥2) were tested at each concentration.

Potassium voltage-gated channel subfamily H member 2, sequence (Q12809 whole entry): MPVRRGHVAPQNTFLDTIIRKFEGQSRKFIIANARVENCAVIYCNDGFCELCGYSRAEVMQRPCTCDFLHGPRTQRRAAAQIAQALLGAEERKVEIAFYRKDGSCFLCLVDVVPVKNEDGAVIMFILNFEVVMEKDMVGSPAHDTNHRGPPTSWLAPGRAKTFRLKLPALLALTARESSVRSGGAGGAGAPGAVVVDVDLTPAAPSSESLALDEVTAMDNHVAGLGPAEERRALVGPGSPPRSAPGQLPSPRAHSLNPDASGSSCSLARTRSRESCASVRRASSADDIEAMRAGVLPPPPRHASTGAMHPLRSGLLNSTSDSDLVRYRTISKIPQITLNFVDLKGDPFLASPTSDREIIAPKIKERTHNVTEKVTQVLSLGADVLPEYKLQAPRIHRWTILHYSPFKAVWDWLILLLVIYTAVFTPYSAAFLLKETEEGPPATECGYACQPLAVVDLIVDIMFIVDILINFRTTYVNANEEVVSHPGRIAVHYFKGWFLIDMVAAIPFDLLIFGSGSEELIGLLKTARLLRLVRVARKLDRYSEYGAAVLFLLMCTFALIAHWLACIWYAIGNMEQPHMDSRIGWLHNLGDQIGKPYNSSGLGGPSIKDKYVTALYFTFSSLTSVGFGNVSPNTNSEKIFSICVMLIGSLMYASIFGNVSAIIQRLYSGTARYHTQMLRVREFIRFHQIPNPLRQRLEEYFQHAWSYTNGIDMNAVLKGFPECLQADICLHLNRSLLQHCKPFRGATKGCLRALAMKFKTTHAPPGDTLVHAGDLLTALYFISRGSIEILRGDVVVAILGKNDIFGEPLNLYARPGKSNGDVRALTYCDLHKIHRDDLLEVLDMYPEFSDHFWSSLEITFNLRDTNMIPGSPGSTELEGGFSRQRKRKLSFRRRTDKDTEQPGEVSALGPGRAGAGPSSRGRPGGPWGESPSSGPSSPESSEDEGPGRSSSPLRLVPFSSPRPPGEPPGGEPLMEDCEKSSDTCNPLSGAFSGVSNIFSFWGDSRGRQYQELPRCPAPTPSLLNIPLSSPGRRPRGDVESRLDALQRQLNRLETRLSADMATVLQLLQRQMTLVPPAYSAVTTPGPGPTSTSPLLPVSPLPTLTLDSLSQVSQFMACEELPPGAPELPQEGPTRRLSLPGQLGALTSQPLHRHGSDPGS

Row | SMILES | IC50 [µM]
1 | CNC(=O)COc1cc2cc(Nc3nc(N4CCC(CN5CCC(C6CCN(c7cccc8c(C9CCC(=O)NC9=O)nn(C)c78)CC6)CC5)CC4)ncc3Cl)ccc2n(C)c1=O (stereo unspecified) [US20250333410, Compound 8] | > 40
2 | CNC(=O)COc1cc2cc(Nc3nc(N4CCC(CN5CCC(c6cccc7c6n(C)c(=O)n7C6CCC(=O)NC6=O)CC5)CC4)ncc3Cl)ccc2n(C)c1=O (stereo unspecified) [US20250333410, Compound 35] | > 30
3 | CNC(=O)COc1cc2cc(Nc3nc(N4CCN(CC5CCN(c6ccc7c8c(oc7c6)C(=O)N(C6CCC(=O)NC6=O)C8)CC5)CC4)ncc3Cl)ccc2n(C)c1=O (stereo unspecified) [US20250333410, Compound 46] | > 30
4 | CNC(=O)COc1cc2cc(Nc3nc(N4CCN(CC5CC6(CCN(c7scc8c7C(=O)N(C7CCC(=O)NC7=O)C8=O)CC6)C5)CC4)ncc3Cl)ccc2n(C)c1=O (stereo unspecified) [US20250333410, Compound 67] | > 40
5 | CNC(=O)COc1cc2cc(Nc3nc(N4CCC(N5CCN(c6ccc(NC7CCC(=O)NC7=O)cc6F)CC5)C(F)(F)C4)ncc3Cl)ccc2n(C)c1=O (stereo unspecified) [US20250333410, Compound 71] | > 40
6 | CNC(=O)COc1cc2cc(Nc3nc(N4CC[C@@H](N5CCN(c6ccc(N[C@@H]7CCC(=O)NC7=O)cc6F)CC5)C(F)(F)C4)ncc3Cl)ccc2n(C)c1=O [US20250333410, Compound 72] | > 40
7 | CNC(=O)COc1cc2cc(Nc3nc(N4CC[C@H](N5CCN(c6ccc(N[C@@H]7CCC(=O)NC7=O)cc6F)CC5)C(F)(F)C4)ncc3Cl)ccc2n(C)c1=O [US20250333410, Compound 73] | > 40
8 | CC(=O)COc1cc2cc(Nc3nc(N4CC[C@@H](N5CCN(c6ccc(N[C@H]7CCC(=O)NC7=O)cc6F)CC5)C(F)(F)C4)ncc3Cl)ccc2n(C)c1=O [US20250333410, Compound 75] | > 40
9 | CC(=O)COc1cc2cc(Nc3nc(N4CCC(N5CCN(c6c(F)cc(C7CCC(=O)NC7=O)cc6F)CC5)C(F)(F)C4)ncc3Cl)ccc2n(C)c1=O (stereo unspecified) [US20250333410, Compound 76] | > 40
10 | CNC(=O)COc1cc2cc(Nc3nc(N4CCC(N5CCN(c6cccc7c6n(C)c(=O)n7C6CCC(=O)NC6=O)CC5)C(F)(F)C4)ncc3Cl)ccc2n(C)c1=O (stereo unspecified) [US20250333410, Compound 77] | > 40
11 | CCC(=O)COc1cc2cc(Nc3nc(N4CCC(N5CCN(c6cccc7c(C8CCC(=O)NC8=O)nn(C)c67)CC5)C(F)(F)C4)ncc3Cl)ccc2n(C)c1=O (stereo unspecified) [US20250333410, Compound 78] | > 40
